Our source for the IC50 values is patent US9216968B2, “Heterocyclic derivative and pharmaceutical drug” (NIPPON SHINYAKU CO., LTD., priority 2011, dated 2015).

The target of one assay is human mPGES-1 (Homo sapiens (Human), UniProt O14684). In words: mPGES-1 inhibiting activity (microsome fractions, PGE2 by HTRF). The class given is biochemical. The note with it: microsomes from CHO-K1 cells transfected with human mPGES-1; PGH2 1 μM, 4° C., 60 seconds; read-out: mPGES-1 Inhibition IC50. An outline of the steps: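 PGE2 formation read by HTRF after 60 s at 4 °C with 1 μM PGH2 substrate, following 20 min compound preincubation (1% DMSO) with human mPGES-1 microsomes from transfected CHO-K1 cells. Buffer: potassium phosphate, reduced glutathione, pH 7.4; IC50 from activity relative to enzyme-free blank.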
Sequence of human mPGES-1 (O14684 whole entry): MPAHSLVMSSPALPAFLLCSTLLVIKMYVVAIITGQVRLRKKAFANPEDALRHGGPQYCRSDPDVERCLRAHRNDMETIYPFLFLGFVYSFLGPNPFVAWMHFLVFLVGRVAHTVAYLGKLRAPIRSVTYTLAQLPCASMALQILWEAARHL
Background: In TR-FRET formats the signal depends on donor and acceptor labels being close together.

For a further assay, the system named is A549 cells. In words: Inhibition of PGE2 production in A549 cell (IL-1β stimulated). Type of assay: cell-based, human. The note with it: IL-1β 5 ng/well, PGE2 in culture medium. An outline of the steps:
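After IL-1β (5 ng/well) stimulation for 24 h at 37 °C, following a 60-min compound pretreatment in RPMI with 3% FBS, medium PGE2 (HTRF) and PGF2α (EIA) from human A549 cells were quantified. 100% activity set as IL-1β-induced minus basal production; IC50 calculated.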

Broadly, the IC50 is the concentration that gives 50% inhibition.

Structures can show the parent of a compound that is named as a salt.

For `Cc1c(Cl)cccc1NC(=O)c1cc(NC(=O)c2ccccc2C(F)(F)F)cc2[nH]c(C3CCCO3)nc12` (stereo in doubt) [Example 66, N-(3-Chloro-2-methylphenyl)-2-[(2S)-tetrahydrofuran-2-yl]-6-({[2-(trifluoromethyl)phenyl]carbonyl}amino)-1H-benzimidazole-4-carboxamide hydrochloride], the IC50 at human mPGES-1 turned out to be 9.9 nM; in the assay with A549 cells (24 hours, hydrochloride), 57.3 nM.

Consider `COCc1nc2c(C(=O)Nc3ccc(C(F)(F)F)cc3)cc(NC(=O)c3ccccc3C(F)(F)F)cc2[nH]1` [Example 28, 2-(Methoxymethyl)-N-[4-(trifluoromethyl)phenyl]-6-({[2-(trifluoromethyl)phenyl]carbonyl}amino)-1H-benzimidazole-4-carboxamide hydrochloride], for which the IC50 on human mPGES-1 came to 3.3 nM; in the assay with A549 cells (Homo sapiens, A549, 24 h), 114 nM.

Take `Cc1c(Cl)cccc1NC(=O)c1cc(NC(=O)c2ccccc2C(F)(F)F)cc2[nH]c(C3(C(F)(F)F)CC3)nc12` [Example 89, N-(3-Chloro-2-methylphenyl)-2-[1-(trifluoromethyl)cyclopropyl]-6-({[2-(trifluoromethyl)phenyl]carbonyl}amino)-1H-benzimidazole-4-carboxamide]: the IC50 on human mPGES-1 turned out to be 1.2 nM; in the assay with A549 cells (Homo sapiens, A549, 24 h) it was 2.1 nM.

With `COCc1nc2c(C(=O)Nc3c(C)cccc3Cl)cc(NC(=O)c3ccccc3C(F)(F)F)cc2[nH]1` [Example 43, N-(2-Chloro-6-methylphenyl)-2-(methoxymethyl)-6-({[2-(trifluoromethyl)phenyl]carbonyl}amino)-1H-benzimidazole-4-carboxamide hydrochloride], the IC50 turned out to be 70.7 nM at human mPGES-1 and 438 nM with A549 cells (Homo sapiens, A549, 24 h).

With `COCc1nc2c(C(=O)Nc3cccc(Cl)c3C)cc(NC(=O)c3cc(CCCOC(C)(C)C)ccc3Cl)cc2[nH]1` [Example 118, 6-({[5-(3-tert-Butoxypropyl)-2-chlorophenyl]carbonyl}amino)-N-(3-chloro-2-methylphenyl)-2-(methoxymethyl)-1H-benzimidazole-4-carboxamide hydrochloride], the IC50 at human mPGES-1 came to 7.3 nM; in the assay with A549 cells (Homo sapiens, A549, 24 h), 5.3 nM.

With `COCCCc1ccc(Cl)c(C(=O)Nc2cc(C(=O)Nc3cccc(Cl)c3C)c3nc(COC)[nH]c3c2)c1` [Example 116, 6-({[2-Chloro-5-(3-methoxypropyl)phenyl]carbonyl}amino)-N-(3-chloro-2-methylphenyl)-2-(methoxymethyl)-1H-benzimidazole-4-carboxamide hydrochloride], the IC50 on human mPGES-1 was 9.7 nM; in the assay on A549 cells (Homo sapiens, A549, 24 h), 252 nM.

Turning to `COCc1nc2c(C(=O)Nc3cccc4ccccc34)cc(NC(=O)c3ccccc3C(F)(F)F)cc2[nH]1` [Example 219, 2-(Methoxymethyl)-N-(naphthalen-1-yl)-6-({[2-(trifluoromethyl)phenyl]carbonyl}amino)-1H-benzimidazole-4-carboxamide hydrochloride], the IC50 on human mPGES-1 was 2 nM; in the assay on A549 cells (Homo sapiens, A549, 24 h), 26 nM.

As for `Cc1c(Cl)cccc1NC(=O)c1cc(NC(=O)c2ccccc2C(F)(F)F)cc2[nH]c([C@@H]3CCCN3C(=O)OC(C)(C)C)nc12` [Example 69, tert-Butyl (2S)-2-{4-[(3-chloro-2-methylphenyl)carbamoyl]-6-({[2-(trifluoromethyl)phenyl]carbonyl}amino)-1H-benzimidazol-2-yl}pyrrolidine 1-carboxylate], the half-maximal inhibitory concentration (IC50) was found to be 10 nM at human mPGES-1 and 21.6 nM in the assay with A549 cells (Homo sapiens, A549, 24 h).

On to `Cc1nc2c(C(=O)NCc3ccccc3C(F)(F)F)cc(NC(=O)c3ccccc3C(F)(F)F)cc2[nH]1` [Example 12, 2-Methyl-N-[2-(trifluoromethyl)benzyl]-6-({[2-(trifluoromethyl)phenyl]carbonyl}amino)-1H-benzimidazole-4-carboxamide hydrochloride], for which the IC50 on human mPGES-1 is 7.1 nM; in the assay with A549 cells (Homo sapiens, A549, 24 h) it was 41 nM.

On to `Cc1c(Cl)cccc1NC(=O)c1cc(NC(=O)c2cc(Cl)ccc2Cl)cc2[nH]c(NCC(C)(C)O)nc12` [Example 191, N-(3-Chloro-2-methylphenyl)-6-{[(2,5-dichlorophenyl)carbonyl]amino}-2-[(2-hydroxy-2-methylpropyl)amino]-1H-benzimidazole-4-carboxamide hydrochloride], for which the IC50 turned out to be 3.9 nM at human mPGES-1 and 49.5 nM in the assay with A549 cells (Homo sapiens, A549, 24 h).

With `COCc1nc2c(C(=O)Nc3cccc(Cl)c3C)cc(NC(=O)c3cc(F)ccc3C(F)(F)F)cc2[nH]1` [Example 112, N-(3-Chloro-2-methylphenyl)-6-({[5-fluoro-2-(trifluoromethyl)phenyl]carbonyl}amino)-2-(methoxymethyl)-1H-benzimidazole-4-carboxamide hydrochloride], the IC50 is 2.6 nM at human mPGES-1 and 187 nM with A549 cells (Homo sapiens, A549, 24 h).

Turning to `COCc1nc2c(C(=O)Nc3c(F)cccc3F)cc(NC(=O)c3ccccc3C(F)(F)F)cc2[nH]1` [Example 40, N-(2,6-Difluorophenyl)-2-(methoxymethyl)-6-({[2-(trifluoromethyl)phenyl]carbonyl}amino)-1H-benzimidazole-4-carboxamide], the IC50 at human mPGES-1 worked out at 194 nM; with A549 cells (Homo sapiens, A549, 24 h) it was 300 nM.

`CC(C)(C)c1nc2c(C(=O)NCc3ncccc3C(F)(F)F)cc(NC(=O)c3ccccc3C(F)(F)F)cc2[nH]1` [Example 77, 2-tert-Butyl-6-({[2-(trifluoromethyl)phenyl]carbonyl}amino)-N-{[3-(trifluoromethyl)pyridin-2-yl]methyl}-1H-benzimidazole-4-carboxamide dihydrochloride]: the IC50 is 1.7 nM at human mPGES-1 and 32.9 nM with A549 cells (Homo sapiens, A549, 24 h).

`COC(C)(C)CNc1nc2c(C(=O)Nc3cccc(Cl)c3C)cc(NC(=O)c3c(F)cccc3Cl)cc2[nH]1` [Example 197, 6-{[(2-Chloro-6-fluorophenyl)carbonyl]amino}-N-(3-chloro-2-methylphenyl)-2-[(2-methoxy-2-methylpropyl)amino]-1H-benzimidazole-4-carboxamide hydrochloride]: the IC50 on human mPGES-1 was determined as 5.2 nM; in the assay with A549 cells (Homo sapiens, A549, 24 h), 34.4 nM.

Regarding `COCc1nc2c(C(=O)Nc3cccc(Cl)c3C)cc(NC(=O)c3ccccc3S(C)(=O)=O)cc2[nH]1` [Example 212, N-(3-Chloro-2-methylphenyl)-2-(methoxymethyl)-6-({[2-(methylsulfonyl)phenyl]carbonyl}amino)-1H-benzimidazole-4-carboxamide], the IC50 was found to be 42.3 nM on human mPGES-1 and 305 nM in the assay on A549 cells (Homo sapiens, A549, 24 h).

As to `Cc1c(Cl)cccc1NC(=O)c1cc(NC(=O)c2c(Cl)cccc2Cl)cc2[nH]c(N(C)C)nc12` [Example 183, N-(3-Chloro-2-methylphenyl)-6-{[(2,6-dichlorophenyl)carbonyl]amino}-2-(dimethylamino)-1H-benzimidazole-4-carboxamide hydrochloride], the IC50 was determined as 1.9 nM at human mPGES-1 and 6.1 nM in the assay on A549 cells (Homo sapiens, A549, 24 h).

`Cc1c(Cl)cccc1NC(=O)c1cc(NC(=O)c2ccccc2C(F)(F)F)cc2[nH]c(NCCO)nc12` [Example 137, N-(3-Chloro-2-methylphenyl)-2-[(2-hydroxyethyl)amino]-6-({[2-(trifluoromethyl)phenyl]carbonyl}amino)-1H-benzimidazole-4-carboxamide hydrochloride]: the IC50 at human mPGES-1 amounted to 3.3 nM; in the assay with A549 cells (Homo sapiens, A549, 24 h) it was 1110 nM.

On to `Cc1c(Cl)cccc1NC(=O)c1cc(NC(=O)c2c(F)cccc2Cl)cc2[nH]c(NC[C@H]3CCCO3)nc12` [Example 199, 6-{[(2-Chloro-6-fluorophenyl)-carbonyl]amino}-N-(3-chloro-2-methylphenyl)-2-{[(2R)-tetrahydrofuran-2-ylmethyl]amino}-1H-benzimidazole-4-carboxamide hydrochloride], for which the IC50 on human mPGES-1 is 9.7 nM; in the assay on A549 cells (Homo sapiens, A549, 24 h) it was 43.2 nM.

With `Cc1c(Cl)cccc1NC(=O)c1cc(NC(=O)c2ccccc2C(F)(F)F)cc2[nH]c(NCC(C)(C)C)nc12` [Example 140, N-(3-Chloro-2-methylphenyl)-2-[(2,2-dimethylpropyl)amino]-6-({[2-(trifluoromethyl)phenyl]carbonyl}amino)-1H-benzimidazole-4-carboxamide hydrochloride], the IC50 came to 0.2 nM at human mPGES-1 and 33 nM with A549 cells (Homo sapiens, A549, 24 h).

With `Cc1c(Cl)cccc1NC(=O)c1cc(NC(=O)c2cc(C#CC3CC3)ccc2Cl)cc2[nH]c(N(C)C)nc12` [Example 188, 6-({[2-Chloro-5-(cyclopropylethynyl)phenyl]carbonyl}amino)-N-(3-chloro-2-methylphenyl)-2-(dimethylamino)-1H-benzimidazole-4-carboxamide hydrochloride], the IC50 is 457 nM on human mPGES-1 and 1020 nM in the assay on A549 cells (Homo sapiens, A549, 24 h).

Consider `COCc1nc2c(C(=O)NCc3ccccc3C(F)(F)F)cc(NC(=O)c3ccccc3C(F)(F)F)cc2[nH]1` [Example 21, 2-(Methoxymethyl)-N-[2-(trifluoromethyl)benzyl]-6-({[2-(trifluoromethyl)phenyl]carbonyl}amino)-1H-benzimidazole-4-carboxamide], for which the IC50 is 8.3 nM at human mPGES-1 and 69.4 nM in the assay on A549 cells (Homo sapiens, A549, 24 h).

As for `CCn1cnc2c(C(=O)Nc3cccc(Cl)c3C)cc(NC(=O)c3ccccc3C(F)(F)F)cc21` [Example 49, N-(3-Chloro-2-methylphenyl)-1-ethyl-6-({[2-(trifluoromethyl)phenyl]carbonyl}amino)-1H-benzimidazole-4-carboxamide], the IC50 at human mPGES-1 amounted to 100 nM; in the assay with A549 cells (Homo sapiens, A549, 24 h), 375 nM.

In the case of `COCc1nc2c(C(=O)Nc3ccc(C)c(Cl)c3)cc(NC(=O)c3ccccc3C(F)(F)F)cc2[nH]1` [Example 32, N-(3-Chloro-4-methylphenyl)-2-(methoxymethyl)-6-({[2-(trifluoromethyl)phenyl]carbonyl}amino)-1H-benzimidazole-4-carboxamide hydrochloride], the IC50 was 5.2 nM on human mPGES-1 and 71.7 nM in the assay with A549 cells (Homo sapiens, A549, 24 h).
